The target of the assay is T1, human recombinant, purified wild type His-B-Raf protein kinase (Homo sapiens, UniProt P15056).
T1 construct: His
The assay is described as follows: B-Raf In Vitro ELISA Assay. Type of assay: biochemical. The following applies: ELISA of MEK1 phosphorylation; 2.5 nM B-Raf, 10 μM ATP; 1 hour preincubation at 25° C. As for the experimental part:
B-Raf In Vitro ELISA Assay
Activity of human recombinant, purified wild type His-B-Raf protein kinase was determined in vitro using an enzyme-linked immunosorbent assay (ELISA) assay format, which measures phosphorylation of the B-Raf substrate, human recombinant, purified His-derived (detagged) MEK1. The reaction utilized 2.5 nM B-Raf, 0.15 μM […] and 10 μM adenosine triphosphate (ATP) in 40 mM N-(2-hydroxyethyl)piperazine-N′-(2-ethanesulfonic acid hemisodium salt (HEPES), 5 mM 1,4-dithio-DL-threitol (DTT), 10 mM MgCl2, 1 mM ethylenediaminetetraacetic acid (EDTA) and 0.2 M NaCl (1×HEPES buffer), with or without compound at various concentrations, in a total reaction volume of 25 μl in 384 well plates. B-Raf and compound were preincubated in 1×HEPES buffer for 1 hour at 25° C. Reactions were initiated with addition of MEK1 and ATP in 1×HEPES buffer and incubated at 25° C. for 50 minutes and reactions stopped by addition of 10 μl 175 mM EDTA (final concentration 50 mM) in 1×HEPES buffer. 5 μl of the assay mix was then diluted 1:20 into 50 mM EDTA in 1×HEPES buffer, transferred to 384 well black high protein binding plates and incubated overnight at 4° C. […] Blue fluorescent product was detected at excitation 325 and emission 420 using a TECAN Ultra plate reader. Data was graphed and IC50s calculated using Excel Fit (Microsoft).

pIC50: −log10 of the molar value.

T1 sequence (P15056 whole entry): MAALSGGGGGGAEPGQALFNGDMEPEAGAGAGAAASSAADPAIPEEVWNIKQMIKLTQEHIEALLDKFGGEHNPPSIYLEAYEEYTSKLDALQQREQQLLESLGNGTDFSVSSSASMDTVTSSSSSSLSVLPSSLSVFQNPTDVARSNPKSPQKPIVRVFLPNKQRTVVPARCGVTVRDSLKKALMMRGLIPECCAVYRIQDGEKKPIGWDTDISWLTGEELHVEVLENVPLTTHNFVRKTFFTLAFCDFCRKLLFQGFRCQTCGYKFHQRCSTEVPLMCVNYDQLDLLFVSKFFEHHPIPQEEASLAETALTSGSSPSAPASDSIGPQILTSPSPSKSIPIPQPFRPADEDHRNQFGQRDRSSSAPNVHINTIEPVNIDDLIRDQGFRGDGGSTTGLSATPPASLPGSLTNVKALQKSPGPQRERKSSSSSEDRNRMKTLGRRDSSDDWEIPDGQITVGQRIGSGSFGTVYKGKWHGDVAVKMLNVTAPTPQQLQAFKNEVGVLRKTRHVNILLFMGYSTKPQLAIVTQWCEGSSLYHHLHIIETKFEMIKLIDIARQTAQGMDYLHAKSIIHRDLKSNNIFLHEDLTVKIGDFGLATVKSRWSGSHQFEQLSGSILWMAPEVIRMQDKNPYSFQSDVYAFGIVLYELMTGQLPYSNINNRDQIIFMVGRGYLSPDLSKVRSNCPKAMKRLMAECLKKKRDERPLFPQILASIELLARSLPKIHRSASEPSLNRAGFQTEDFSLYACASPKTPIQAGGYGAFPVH

As a reminder, the pIC50 is the IC50 on a negative log10 scale, so that one unit is a factor of ten. In the case of `Cc1ccc(NC(=O)c2cccc(C(C)(C)C#N)c2)cc1Nc1ccnc(-c2cccnc2)n1` [Example 2, 3-(1-Cyano-1-methylethyl)-N-{4-methyl-3-[(2-pyridin-3-ylpyrimidin-4-yl)amino]phenyl}benzamide], the pIC50 was 6.82.

`Cc1ccc(NC(=O)c2cccc(C(C)(C)C#N)c2)cc1Nc1cc(NC2CC2)nc(-c2cccnc2)n1` [Example 4, 3-(Cyano-dimethyl-methyl)-N-[3-(6-cyclopropylamino-2-pyridin-3-yl-pyrimidin-4-ylamino)-4-methyl-phenyl]benzamide]: the pIC50 was 5.87.

For the origin of these results see patent US20080146570A1, “Chemical Compounds” (ASTRAZENECA AB, priority 2005, published 2008).
